Reference: BindingDB's records for doi:10.1016/j.ejmech.2010.03.048 (2010)

Each compound was assayed against Sigma non-opioid intracellular receptor 1 (Cavia porcellus, UniProt Q60492) (assay: Displacement of [3H](+)-pentazocine from sigma 1 receptor in guinea pig brain membrane).
Sequence of Sigma non-opioid intracellular receptor 1 (Q60492 whole entry): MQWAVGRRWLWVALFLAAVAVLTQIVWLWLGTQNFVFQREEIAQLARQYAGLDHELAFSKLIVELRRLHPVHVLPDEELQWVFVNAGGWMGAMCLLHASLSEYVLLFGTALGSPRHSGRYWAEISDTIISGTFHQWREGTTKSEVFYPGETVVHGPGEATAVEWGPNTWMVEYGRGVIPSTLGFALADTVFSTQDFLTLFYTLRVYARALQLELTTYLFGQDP

Row | Compound | Ki [nM]
1 | OCC[C@H]1Cc2ccccc2C2(CCN(Cc3ccccc3)CC2)O1 [(R)-2-(1'-benzylspiro[isochroman-1,4'-piperidine]-3-yl)ethanol] | 48
2 | OCC[C@@H]1Cc2ccccc2C2(CCN(Cc3ccccc3)CC2)O1 [(S)-2-(1'-benzylspiro[isochroman-1,4'-piperidine]-3-yl)ethanol] | 10
3 | OCC[C@H]1Cc2ccccc2C2(CCN(CC3CCCCC3)CC2)O1 [(R)-2-(1'-(cyclohexylmethyl)spiro[isochroman-1,4'-piperidine]-3-yl)ethanol] | 9
4 | OCC[C@H]1Cc2ccccc2C2(CCN(CCCc3ccccc3)CC2)O1 [(R)-2-(1'-(3-phenylpropyl)spiro[isochroman-1,4'-piperidine]-3-yl)ethanol] | 68
